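A five-concentration, 48-hour dose response in 96-well plates underlies each endpoint, interpolated linearly between surrounding concentrations. GI50: concentration for 50% inhibition of growth.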 Active and inactive are the calls of the source. Cut-off read from the data, not from the text of the source: active = GI50 up to about 1.1 µM and inactive = higher.
Assays:
Test in all cases: growth of human tumour cells (NCI), 48 h
[1] = tested on: A498
[2] = tested on: RPMI-8226
[3] = tested on: 786-0
[4] = tested on: IGROV-1
[5] = tested on: PC-3
[6] = tested on: TK-10
[7] = tested on: OVCAR-8
[8] = tested on: M14
[9] = tested on: MDA-MB-231
[10] = tested on: SK-MEL-2
[11] = tested on: K562
[12] = tested on: KM12
[13] = tested on: RXF 393
[14] = tested on: SNB-19
[15] = tested on: SN12C
[16] = tested on: MDA-MB-435
[17] = tested on: OVCAR-5
[18] = tested on: HCT-15
[19] = tested on: SK-MEL-28
[20] = tested on: UACC-257
[21] = tested on: MCF7
[22] = tested on: BT-549
[23] = tested on: NCI/ADR-RES
[24] = tested on: NCI-H522
[25] = tested on: SK-MEL-5
[26] = tested on: HCT-116
[27] = tested on: COLO 205
[28] = tested on: SF-295
[29] = tested on: UACC-62
[30] = tested on: HL-60
[31] = tested on: T47D
[32] = tested on: MOLT-4
[33] = tested on: ACHN
[34] = tested on: Hs-578T
[35] = tested on: HT-29
[36] = tested on: NCI-H460
[37] = tested on: NCI-H226
[38] = tested on: SW-620
[39] = tested on: DU-145
[40] = tested on: OVCAR-4
[41] = tested on: SF-268
[42] = tested on: EKVX
[43] = tested on: CAKI-1
[44] = tested on: OVCAR-3
[45] = tested on: MDA-N
[46] = tested on: NCI-H23
[47] = tested on: CCRF-CEM
[48] = tested on: A549
[49] = tested on: U-251
[50] = tested on: UO-31
[51] = tested on: HOP-62
[52] = tested on: LOX IMVI
[53] = tested on: Malme-3M
[54] = tested on: SF-539
[55] = tested on: SR
[56] = tested on: HCC 2998
[57] = tested on: SNB-75
[58] = tested on: SK-OV-3

With `Cc1ccc2c(=O)c(-c3n[nH]c(=S)s3)c[nH]c2n1` the GI50 [1] was > 100 µM (inactive), the GI50 [2] was > 100 µM (inactive) and the GI50 [3] was > 100 µM (inactive). The GI50 [4] was > 100 µM (inactive), the GI50 [5] was > 100 µM (inactive) and the GI50 [6] was > 100 µM (inactive). The GI50 [7] was > 100 µM (inactive), the GI50 [8] was > 100 µM (inactive) and the GI50 [9] was > 100 µM (inactive). For the same compound, the GI50 [10] was > 100 µM (inactive), the GI50 [11] was > 100 µM (inactive) and the GI50 [12] was > 100 µM (inactive). The GI50 [13] was > 100 µM (inactive), the GI50 [14] was > 100 µM (inactive) and the GI50 [15] was > 100 µM (inactive). The GI50 [16] was > 100 µM (inactive), the GI50 [17] was > 100 µM (inactive) and the GI50 [18] was > 100 µM. The GI50 [19] was > 100 µM (inactive), the GI50 [20] was > 100 µM (inactive) and the GI50 [21] was > 100 µM (inactive). The GI50 [22] was > 100 µM (inactive), the GI50 [23] was > 100 µM (inactive) and the GI50 [24] was 82.8 µM (inactive). For the same compound, the GI50 [25] was > 100 µM (inactive), the GI50 [26] was > 100 µM (inactive) and the GI50 [27] was > 100 µM (inactive). The GI50 [28] was > 100 µM (inactive), the GI50 [29] was > 100 µM (inactive) and the GI50 [30] was > 100 µM (inactive). For the same compound, the GI50 [31] was > 100 µM (inactive), the GI50 [32] was > 100 µM (inactive) and the GI50 [33] was > 100 µM (inactive). For the same compound, the GI50 [34] was > 100 µM (inactive), the GI50 [35] was > 100 µM (inactive) and the GI50 [36] was > 100 µM (inactive). For the same compound, the GI50 [37] was > 100 µM (inactive), the GI50 [38] was > 100 µM (inactive) and the GI50 [39] was > 100 µM (inactive). For the same compound, the GI50 [40] was > 100 µM (inactive), the GI50 [41] was > 100 µM (inactive) and the GI50 [42] was > 100 µM (inactive). For the same compound, the GI50 [43] was > 100 µM (inactive), the GI50 [44] was > 100 µM (inactive) and the GI50 [45] was > 100 µM (inactive). The GI50 [46] was > 100 µM (inactive), the GI50 [47] was > 100 µM (inactive) and the GI50 [48] was > 100 µM (inactive). The GI50 [49] was > 100 µM (inactive), the GI50 [50] was > 100 µM (inactive) and the GI50 [51] was > 100 µM (inactive). The GI50 [52] was > 100 µM (inactive) and the GI50 [53] was > 100 µM (inactive).
`O=C1CCC2=C(CCC2)N1CCc1ccc2c(c1)OCO2` was tested, and the GI50 [2] was < 0.01 µM (active), the GI50 [3] was > 100 µM (inactive) and the GI50 [4] was 58.7 µM (inactive). The GI50 [5] was 32.5 µM (inactive), the GI50 [6] was 76.9 µM (inactive) and the GI50 [7] was > 10 µM (inactive). The GI50 [8] was 92.9 µM (inactive), the GI50 [9] was > 100 µM (inactive) and the GI50 [10] was 29.9 µM (inactive). For the same compound, the GI50 [11] was 25.7 µM (inactive), the GI50 [12] was 62.4 µM (inactive) and the GI50 [13] was 1.21 µM (inactive). The GI50 [14] was 81.7 µM (inactive), the GI50 [15] was 95.1 µM (inactive) and the GI50 [17] was 42.6 µM (inactive). For the same compound, the GI50 [18] was 43.1 µM, the GI50 [19] was > 100 µM (inactive) and the GI50 [20] was 84.9 µM (inactive). For the same compound, the GI50 [21] was 60 µM (inactive), the GI50 [22] was 20.8 µM (inactive) and the GI50 [23] was 43 µM (inactive). The GI50 [24] was 61.1 µM (inactive), the GI50 [25] was 24.5 µM (inactive) and the GI50 [54] was > 100 µM (inactive). For the same compound, the GI50 [26] was 48.2 µM (inactive), the GI50 [27] was 60.3 µM (inactive) and the GI50 [55] was 30.9 µM (inactive). For the same compound, the GI50 [28] was 55.3 µM (inactive), the GI50 [29] was 65 µM (inactive) and the GI50 [30] was 7.62 µM (inactive). For the same compound, the GI50 [31] was 37 µM (inactive), the GI50 [32] was 15.4 µM (inactive) and the GI50 [33] was 77.3 µM (inactive). The GI50 [34] was 49 µM (inactive), the GI50 [35] was 92 µM (inactive) and the GI50 [36] was 48.2 µM (inactive). For the same compound, the GI50 [37] was 20.5 µM (inactive), the GI50 [38] was > 100 µM (inactive) and the GI50 [56] was > 100 µM (inactive). For the same compound, the GI50 [57] was 29.2 µM (inactive), the GI50 [39] was > 100 µM (inactive) and the GI50 [40] was > 100 µM (inactive). The GI50 [41] was 77.6 µM (inactive), the GI50 [58] was > 100 µM (inactive) and the GI50 [42] was 47 µM (inactive). For the same compound, the GI50 [43] was 81.8 µM (inactive), the GI50 [45] was > 100 µM (inactive) and the GI50 [46] was 38 µM (inactive). For the same compound, the GI50 [47] was 29.2 µM (inactive), the GI50 [48] was 62.1 µM (inactive) and the GI50 [49] was 45.7 µM (inactive). For the same compound, the GI50 [50] was 21.6 µM (inactive), the GI50 [51] was 94.6 µM (inactive) and the GI50 [52] was 59.6 µM (inactive). The GI50 [53] was > 100 µM (inactive).

Source: ChEMBL document CHEMBL1201862, “PubChem BioAssay data set” (2004)
